Here are results for 2 compounds from patent US20260137742A1, “Composition for Activating Transient Receptor Potential Ankyrin 1, and Composition for Enhancing Food Consumption and/or Ameliorating Decreased Appetite” (HOUSE FOODS GROUP INC., priority 2022, published 2026).

The target of test [1] is T1, human TRPA1 (hTRPA1) (Homo sapiens, UniProt O75762).
T1 construct: expressed in transfected cells
Description: Intracellular Ca2+ Imaging Assay 1 (TRPA1 activation rate, hTRPA1 stable expression cell line). The following applies: for TRPA1 Activation Rate (Mean ± Standard Error): relative to ionomycin, n = 6. It counts as cell-based. As to the method: (§1) A DNA coding for human TRPA1 (hTRPA1) (GenBank accession number: NM_007332.3) was inserted into the pcDNA5/TO vector (Invitrogen) to create an expression vector. This expression vector was transfected into T-REx™-293 cells (Invitrogen) by a conventional method using Lipofectamine LTX (Invitrogen). Using 10% fetal bovine serum (FBS, Cytiva), 400μ/mL hygromycin B, and 5 μg/mL blasticidin S, which were added to Dulbecco's Modified Eagle Medium (DMEM, Nacalai Tesque) as drug selection medium, the transfectants were cultured by a conventional method and cloned to obtain an hTRPA1 stable expression cell line.
Two hundred microliters of each mushroom extract solution prepared in item 1 (1) was dispensed and the solvent was removed under vacuum using a desiccator. The dried residue left in the container was dissolved in 1 mL of assay buffer (Hank's Balanced Salt Solution without calcium and magnesium ions, containing 1 mM CaCl2 dihydrate, 20 mM HEPES, and 0.1% BSA). […]
(§2) This plate was set in FlexStation3 (Molecular Devices) and the fluorescence intensity (excitation at 490 nm, emission at 525 nm) was measured every 2 seconds at 31° C.; 30 seconds after the start of measurement, 100 μL of assay buffer containing the negative control DMSO (final concentration: 20 μL/mL), the positive control allyl isothiocyanate (AITC) (AITC was dissolved in DMSO; final concentration: 30 μM), each mushroom extract solution described above, or lenthionine (manufactured by Ambeed, Inc.) (lenthionine was dissolved in DMSO; final concentration: 50 μM) was added. In addition, to determine the reference for fluorescence intensity, wells to which assay buffer containing ionomycin (final concentration: 10 µM after addition) was added were prepared instead of the test samples.
(§3) Fluorescence intensity measurement was continued until 120 seconds from the start; the TRPA1-activating ability of the test samples and so forth was calculated using the formula below.
Fmax[s]: maximum fluorescence intensity after adding the test sample or positive control […]
Fmax[I]: maximum fluorescence intensity after adding ionomycin

Test [2] has as its target T1, human TRPA1 (hTRPA1). Kind of test: Intracellular Ca2+ Imaging Assay 2 (stepwise concentrations 0.01 μM-300 μM). It counts as cell-based. As to the method: as §1
(§4) Next, an hTRPA1 stable expression cell line whose hTRPA1 expression had been induced in advance by a conventional method was prepared in a 96-well clear-bottom plate; after washing each well with PBS, 50 μL of assay buffer (Hank's Balanced Salt Solution without calcium and magnesium ions, containing 1 mM CaCl2 dihydrate, 20 mM HEPES, 0.1% BSA, and 4 μM Calbryte™ 520 AM (manufactured by AAT BioQuest)) was added and incubated for 45 minutes at 33° C. After washing with assay buffer, 100 μL of assay buffer was added to each well.
as §2, §3
Aside from using samples in which the concentrations of AITC or lenthionine were set stepwise in the range of 0.01 μM-300 μM, the procedure was the same as in (2) above; the TRPA1-activating abilities of each sample were measured.

The target of test [3] is T1, human TRPA1 (hTRPA1). Kind of test: Intracellular Ca2+ Imaging Assay 3 (with or without TRPA1-specific antagonist A-967079). Type of test: cell-based. As to the method:
as §1, §4, §2, §3
Samples of 30 μM AITC, 100 μM or 5 μM lenthionine, or DMSO were used; the test was performed either in the presence of the TRPA1-specific antagonist A-967079 (1 μM) or in the absence thereof (DMSO: 20 μL/mL); apart from this, the procedure was the same as in (3) above, and the TRPA1-activating abilities of each sample were measured.

Test [4] deals with Male ICR mice. Kind of test: Test 1 for Ameliorating Decreased Appetite (food intake in mice after single gastric gavage). Type of test: in vivo. The note with it: for Food Intake (Mean ± Standard Error, n = 10): lenthionine 50 μmol/kg body weight, single gastric gavage, 30 minutes after start of feeding. As for the experimental part: Male ICR mice were kept in individual cages with ALPHA-dri (Shepherd Specialty Papers) as bedding, and they were fed a powdered diet (CE-2, CLEA Japan) using a powder feeder for mice (SN-950, Shinano Seisakusho Co., Ltd.), with ad libitum feeding and free access to water, for at least one week for acclimatization. During the few days prior to the experiment, daily handling and gavage training using a feeding needle (FG4202, Fuchigami Kikai) were performed.
As test samples, the following were prepared for each of carrier solution (containing, by volume, 5% dimethyl sulfoxide, 1% Tween80, and 94% corn oil) and lenthionine solution (carrier solution containing 0.94 mg lenthionine per 1 mL): one containing the TRPA1-specific antagonist A-967079 (1.0 μmol of A-967079 per 1 mL of the carrier solution) and one not containing it; one of these was administered to 11- to 12-week-old mice under ad libitum feeding conditions by a single gastric gavage at 9:20 a.m. at 10 mL/kg body weight. The dose of lenthionine in molar terms was 50 μmol/kg body weight. Immediately after the single gavage, at 9:30 a.m., the powdered feeder inside the cage was replaced with a new feeder loaded with powdered diet whose mass had been measured beforehand; this time point was set as the start of the feeding experiment. Thirty minutes after the start of the feeding experiment, the mass of the feeder and any spilled feed in the cage was measured, and the food intake (g) was calculated (n=10).

T1 sequence (O75762 whole entry): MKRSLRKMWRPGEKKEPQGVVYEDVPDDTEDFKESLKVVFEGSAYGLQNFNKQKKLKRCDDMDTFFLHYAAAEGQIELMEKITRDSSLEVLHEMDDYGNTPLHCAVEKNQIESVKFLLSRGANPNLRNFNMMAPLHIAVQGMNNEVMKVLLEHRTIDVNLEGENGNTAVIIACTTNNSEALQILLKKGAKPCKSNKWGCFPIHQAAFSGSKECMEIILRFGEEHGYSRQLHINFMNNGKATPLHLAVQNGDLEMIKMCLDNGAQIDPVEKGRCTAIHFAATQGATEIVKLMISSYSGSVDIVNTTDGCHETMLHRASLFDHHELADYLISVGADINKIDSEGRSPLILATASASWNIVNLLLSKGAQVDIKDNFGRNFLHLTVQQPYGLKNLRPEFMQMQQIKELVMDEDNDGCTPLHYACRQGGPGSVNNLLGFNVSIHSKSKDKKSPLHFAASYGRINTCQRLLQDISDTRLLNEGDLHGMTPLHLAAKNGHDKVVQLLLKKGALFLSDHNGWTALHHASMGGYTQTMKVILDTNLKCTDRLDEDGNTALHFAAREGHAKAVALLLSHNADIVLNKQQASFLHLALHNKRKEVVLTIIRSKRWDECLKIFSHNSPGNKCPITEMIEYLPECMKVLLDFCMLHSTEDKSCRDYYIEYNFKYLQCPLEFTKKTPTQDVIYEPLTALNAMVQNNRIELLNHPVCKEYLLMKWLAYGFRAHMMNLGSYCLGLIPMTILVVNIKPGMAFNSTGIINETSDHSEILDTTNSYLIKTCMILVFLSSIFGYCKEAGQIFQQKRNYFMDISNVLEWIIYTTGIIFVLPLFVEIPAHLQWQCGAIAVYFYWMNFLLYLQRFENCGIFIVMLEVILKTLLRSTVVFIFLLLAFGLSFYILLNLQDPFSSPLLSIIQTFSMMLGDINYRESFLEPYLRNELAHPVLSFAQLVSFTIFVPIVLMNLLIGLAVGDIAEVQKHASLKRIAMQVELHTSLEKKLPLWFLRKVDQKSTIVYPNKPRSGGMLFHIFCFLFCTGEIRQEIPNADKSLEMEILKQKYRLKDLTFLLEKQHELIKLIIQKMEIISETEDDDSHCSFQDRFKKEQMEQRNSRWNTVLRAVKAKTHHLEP

On to `C=CCN=C=S` [AITC, allyl isothiocyanate, reference compound], for which the “TRPA1 Activation Rate (Mean ± Standard Error)” value in test [1] (AITC 30 μM final concentration) was found to be 106 ± 1.89%. Further, the “TRPA1 Activation Rate (Mean ± Standard Error, n = 6)” value in test [2] (0.01 μM) is given as 4.02 ± 0.50%; in test [2] (0.1 μM), 5.20 ± 0.19%; in test [2] (0.5 μM), 6.19 ± 0.32%; in test [2] (1 μM), 13.0 ± 1.79%; in test [2] (5 μM), 64.0 ± 4.13%; in test [2] (10 μM), 85.2 ± 3.76%. Further, the “TRPA1 Activation Rate (Mean ± Standard Error, n = 6)” value in test [2] (50 μM) worked out at 105 ± 1.86%; in test [2] (100 μM), 117 ± 2.57%; in test [2] (300 μM), 119 ± 2.74%; in test [3] (30 μM, No Antagonist (DMSO 20 μL/mL)) it was 156 ± 1.38%; in test [3] (30 μM, With Antagonist A-967079 (1 μM)), 1.22 ± 0.06 %.
Regarding `C1SSCSSS1` [Lenthionine, 1,2,3,5,6-pentathiepane], the “TRPA1-activating effect (in words)” value in test [1] (Ca2+ imaging assay 1, summary of Table 1) is on record as “activated TRPA1”. Besides, the “TRPA1 Activation Rate (Mean ± Standard Error)” value in test [1] (lenthionine 50 μM final concentration) was 93.0 ± 3.70%. Further, the “TRPA1 Activation Rate (Mean ± Standard Error, n = 6)” value in test [2] (0.01 μM) is on record as 2.64 ± 0.19%; in test [2] (0.1 μM) it was 2.42 ± 0.14%; in test [2] (0.5 μM), 10.2 ± 0.82%; in test [2] (1 μM), 22.3 ± 1.04%; in test [2] (5 μM), 53.8 ± 2.29%; in test [2] (10 μM) it was 72.5 ± 2.88%. Moreover, the “TRPA1 Activation Rate (Mean ± Standard Error, n = 6)” value in test [2] (50 μM) worked out at 92.6 ± 3.83%; in test [2] (100 μM), 104 ± 1.94%; in test [2] (300 μM), 118 ± 2.65%; in test [3] (5 μM, No Antagonist (DMSO 20 μL/mL)), 64.6 ± 1.38%; in test [3] (5 μM, With Antagonist A-967079 (1 μM)), 1.46 ± 0.14 %; in test [3] (100 μM, No Antagonist (DMSO 20 μL/mL)) it was 133 ± 1.36%. Further, in test [3] (100 μM, With Antagonist A-967079 (1 μM)), the “TRPA1 Activation Rate (Mean ± Standard Error, n = 6)” value came out at 1.61 ± 0.37 %. Besides, in test [2] (0.01 μM-300 μM, compared with AITC), the “TRPA1-activating effect, concentration dependence (in words)” value is “activated TRPA1 in a concentration-dependent manner, at similar intensity to AITC”. In test [3] (A-967079 1 μM), the “TRPA1-activating effect in presence of TRPA1-specific antagonist (in words)” value is listed as “inhibited by the TRPA1-specific antagonist”. The “Food Intake (Mean ± Standard Error, n = 10)” value came to 0.117 ± 0.035 g in test [4] (No Antagonist) and 0.025 ± 0.023 g in test [4] (With Antagonist A-967079 (1.0 μmol per 1 mL)). The “Food intake versus carrier solution (in words)” value in test [4] (lenthionine solution with TRPA1-specific antagonist A-967079) is recorded as “no increase in food intake was observed”; in test [4] (lenthionine solution, No Antagonist), “food intake increased”.
